From patent US20230372367A1 (GW Research Limited, priority 2020, published 2023)
“Also recorded” adds a separate entry of the source.

How the values were obtained:
Assay type in all cases: in vivo, human
[1] = tested on: absence seizures in patients diagnosed with encephalocele; test: Open label, expanded-access program: absence seizure frequency; conditions: for Seizure frequency, Absence: baseline 6.8
Experimental: (§1) Subjects were required to be on one or more AEDs at stable doses for a minimum of two weeks prior to baseline and to have stable vagus nerve stimulation (VNS) settings and ketogenic diet ratios for a minimum of four weeks prior to baseline.
(§2) A maximum dose of 50 mg/kg/day could be utilised for patients who were tolerating the medication but had not achieved seizure control; these patients had further weekly titration by 5 mg/kg/day.
(§3) Modifications were made to concomitant AEDs as per clinical indication.
(§4) Seizure frequency, intensity, and duration were recorded by caregivers in a diary during a baseline period of at least 28 days. Changes in seizure frequency relative to baseline were calculated after at least 2 weeks and at defined timepoints of treatment.
(§5) Patients may be defined as responders if they had more than 50% reduction in seizure frequency compared to baseline. The percent change in seizure frequency was calculated as follows: […]
(§6) The percent change of seizure frequency may be calculated for any time interval where seizure number has been recorded. For the purpose of this example the percent change of seizure frequency for the end of the treatment period was calculated as follows: […]

[2] = tested on: focal seizures with impairment in patients diagnosed with encephalocele; test: Open label, expanded-access program: frequency of focal seizures with impairment; parameters: Seizure frequency, Focal with impairment: unit not given here
Experimental: as §1, §3, §4, §5, §6

[3] = tested on: focal seizures with secondary generalisation in patients diagnosed with encephalocele; test: Open label, expanded-access program: frequency of focal seizures with secondary generalisation; conditions: Patient 2, baseline 85.0
Experimental: as §1, §2, §3, §4, §5, §6

[4] = tested on: seizures associated with encephalocele; test: Open label, expanded-access program: seizures overall; conditions: two patients
Experimental: as §1, §2, §3, §4, §5, §6

## C=C(C)[C@@H]1CCC(C)=C[C@H]1c1c(O)cc(CCCCC)cc1O [CBD, cannabidiol]
[1]; Patient 1, 2 weeks, CBD 15.0 mg/kg/day
  Seizure frequency, Absence: 6.0
[1]; Patient 1, 4 weeks, CBD 25.0 mg/kg/day
  Seizure frequency, Absence: 8.0
[1]; Patient 1, 8 weeks, CBD 30.0 mg/kg/day
  Seizure frequency, Absence: 0
[1]; Patient 1, 12 weeks, CBD 25.0 mg/kg/day
  Seizure frequency, Absence: 0
[1]; Patient 1, 24 weeks, CBD 15.0 mg/kg/day
  Seizure frequency, Absence: 1.6
[1]; Patient 1, 36 weeks, CBD 10.0 mg/kg/day
  Seizure frequency, Absence: 0
[1]; Patient 1, 48 weeks, CBD 10.0 mg/kg/day
  Seizure frequency, Absence: 0
[1]; Patient 1, 60 weeks, CBD 15.0 mg/kg/day
  Seizure frequency, Absence: 0
[1]; Patient 1, 84 weeks, CBD 15.0 mg/kg/day
  Seizure frequency, Absence: 0
[1]; Patient 1, after 36 weeks of treatment
  seizure freedom from absence seizures: completely seizure free from absence seizures
[1]; Patient 1, treated for 144 weeks, relative to baseline
  reduction in absence seizures over the treatment period: 100%
[1]; patients with encephalocele
  effect on frequency of absence seizures (in words): effective in reducing the frequency; also recorded: significant reduction
[2]; Patient 1, 4 weeks, CBD 25.0 mg/kg/day, baseline 92.5
  Seizure frequency, Focal with impairment: 104.0
[2]; Patient 1, 8 weeks, CBD 30.0 mg/kg/day, baseline 92.5
  Seizure frequency, Focal with impairment: 92.8
[2]; Patient 1, 12 weeks, CBD 25.0 mg/kg/day, baseline 92.5
  Seizure frequency, Focal with impairment: 98.0
[2]; Patient 1, 24 weeks, CBD 15.0 mg/kg/day, baseline 92.5
  Seizure frequency, Focal with impairment: 93.1
[2]; Patient 1, 60 weeks, CBD 15.0 mg/kg/day, baseline 92.5
  Seizure frequency, Focal with impairment: 95.0
[2]; Patient 2, 2 weeks, CBD 10.0 mg/kg/day, baseline 6.0
  Seizure frequency, Focal with impairment: 10.0
[2]; Patient 2, 4 weeks, CBD 20.0 mg/kg/day, baseline 6.0
  Seizure frequency, Focal with impairment: 6.8
[2]; Patient 2, 8 weeks, CBD 25.0 mg/kg/day, baseline 6.0
  Seizure frequency, Focal with impairment: 13.5
[2]; Patient 2, 12 weeks, CBD 25.0 mg/kg/day, baseline 6.0
  Seizure frequency, Focal with impairment: 25.1
[2]; Patient 2, 16 weeks, CBD 25.0 mg/kg/day, baseline 6.0
  Seizure frequency, Focal with impairment: 14.6
[2]; Patient 2, 24 weeks, CBD 25.0 mg/kg/day, baseline 6.0
  Seizure frequency, Focal with impairment: 12.9
[2]; Patient 2, 48 weeks, CBD 46.0 mg/kg/day, baseline 6.0
  Seizure frequency, Focal with impairment: 14.5
[2]; Patient 2, 60 weeks, CBD 24.0 mg/kg/day, baseline 6.0
  Seizure frequency, Focal with impairment: 18.1
[2]; Patient 2, 72 weeks, CBD 25.0 mg/kg/day, baseline 6.0
  Seizure frequency, Focal with impairment: 13.4
[2]; Patient 2, 84 weeks, CBD 25.0 mg/kg/day, baseline 6.0
  Seizure frequency, Focal with impairment: 9.8
[2]; Patient 2, 96 weeks, CBD 25.0 mg/kg/day, baseline 6.0
  Seizure frequency, Focal with impairment: 22.9
[2]; Patient 2, 108 weeks, CBD 20.0 mg/kg/day, baseline 6.0
  Seizure frequency, Focal with impairment: 9.4
[2]; Patient 2, 120 weeks, CBD 20.0 mg/kg/day, baseline 6.0
  Seizure frequency, Focal with impairment: 11.3
[2]; Patient 2, 144 weeks, CBD 22.0 mg/kg/day, baseline 6.0
  Seizure frequency, Focal with impairment: 4.8
[2]; Patient 2, treated for 144 weeks, relative to baseline
  reduction in focal seizures with impairment over the treatment period: 20%
[2]; patients with encephalocele
  effect on frequency of focal seizures with impairment (in words): effective in reducing the frequency; also recorded: significant reduction
[3]; 2 weeks, CBD 10.0 mg/kg/day
  Seizure frequency, Focal with secondary generalisation: 90.0
[3]; 4 weeks, CBD 20.0 mg/kg/day
  Seizure frequency, Focal with secondary generalisation: 28.8
[3]; 8 weeks, CBD 25.0 mg/kg/day
  Seizure frequency, Focal with secondary generalisation: 90.2
[3]; 12 weeks, CBD 25.0 mg/kg/day
  Seizure frequency, Focal with secondary generalisation: 197.9
[3]; 16 weeks, CBD 25.0 mg/kg/day
  Seizure frequency, Focal with secondary generalisation: 212.8
[3]; 24 weeks, CBD 25.0 mg/kg/day
  Seizure frequency, Focal with secondary generalisation: 145.6
[3]; 48 weeks, CBD 46.0 mg/kg/day
  Seizure frequency, Focal with secondary generalisation: 143.1
[3]; 60 weeks, CBD 24.0 mg/kg/day
  Seizure frequency, Focal with secondary generalisation: 141.0
[3]; 72 weeks, CBD 25.0 mg/kg/day
  Seizure frequency, Focal with secondary generalisation: 148.6
[3]; 84 weeks, CBD 25.0 mg/kg/day
  Seizure frequency, Focal with secondary generalisation: 143.1
[3]; 96 weeks, CBD 25.0 mg/kg/day
  Seizure frequency, Focal with secondary generalisation: 117.8
[3]; 108 weeks, CBD 20.0 mg/kg/day
  Seizure frequency, Focal with secondary generalisation: 119.1
[3]; 120 weeks, CBD 20.0 mg/kg/day
  Seizure frequency, Focal with secondary generalisation: 146.6
[3]; 144 weeks, CBD 22.0 mg/kg/day
  Seizure frequency, Focal with secondary generalisation: 91.1
[4]
  effect on number of seizures associated with encephalocele (in words): significantly reduce the number of seizures
[4]; absence and focal seizures with impairment, relative to baseline
  reductions in seizures over period of treatment: 20-100%
